Laboratory results published in patent US20130259999A1, “METHOD FOR INHIBITING YEAST ACTIVITY” (PURAC BIOCHEM B.V., priority 2010, published 2013).
Marks after values point to notes of the source that are not given here.

What was measured:
[1] = test system: Saccharomyces cerevisiae (CBS 2190); assay: Combination tests: inhibition of yeast in model beverage; assay type: cell-based; conditions: S. cerevisiae, model beverage pH about 3.5, 96 hours
Experimental: (§1) Candida albicans was isolated from a commercial beverage, Saccharomyces cerevisiae (CBS 2190) and Zygosaccharomyces bailii (CBS 6708) were obtained from CBS (Centraalbureau voor Schimmelcultures).
(§2) Inhibition of yeast was evaluated for combinations of EGCG and polylysine or LAE.
(§3) Yeast cultures were grown in model beverage which contained per litter of demineralised water: 40 g of sucrose, 0.35 g of apple flavour (Givaudan), 8.3 g of apple juice concentrate (Gargill) and 1 g of citric acid. The pH was about 3.5. Cultures were grown in screw-capped tubes for at least 48 hours at 25° C.
(§4) The tests combining two components were carried out in sterile 96-well Microtiter plates. Model beverage was prepared as described above with increasing amounts of two different inhibitors. The concentrations of each inhibitor were presented in 8 equal concentration steps that ranged from 0 to 1-2 times the estimated MIC value of particular yeast for a particular inhibitor. 200 μl of each medium was transferred to a panel of a sterile 96-well Microtiter plate. Completed well plates were stored at 4° C. until further use. For the inoculation of this test 5 μl of a 72 to 84 hours grown culture was used. The OD for every composition was measured 96 hours after inoculation.

[2] = test system: Zygosaccharomyces bailii (CBS 6708); assay: as above; assay type: cell-based; conditions: Z. bailii, model beverage pH about 3.5, 96 hours
Experimental: as §1, §2, §3, §4

Candida albicans [3] = assay: as above; assay type: cell-based; conditions: C. Albicans, model beverage pH about 3.5, 96 hours
Experimental: as §1, §2, §3, §4

[4] = test system: Saccharomyces cerevisiae (CBS 2190); assay: Determination of the minimal inhibitor concentration (MIC) in liquid medium; assay type: cell-based; conditions: S. cerevisiae; liquid medium pH 3.5; OD 96 hours after inoculation
Experimental: as §1
(§5) Yeast cultures were grown in liquid medium (per liter: 5 gram filtered Malt Extract from Oxoid Ltd., England, 40 gram glucose and 5 gram Bacto Peptone from Becton Dickinson, USA, at pH 3.5 prepared according to the manufacturer instructions) in screw-capped tubes for at least 48 hours at 25° C.
(§6) For the determination of the MIC, liquid medium was prepared as described above with increasing amounts of inhibitor. 200 μl of each inhibitor-comprising medium was transferred to a panel of a sterile 96-well Microtiter plate. Completed well plates were stored at 4° C. until further use. For the inoculation of the inhibitor-containing liquid media 5 μl of a 72 to 84 hours grown culture was used. The optical density (OD) for every composition was measured 96 hours after inoculation.

[5] = test system: Zygosaccharomyces bailii (CBS 6708); assay: as above; assay type: cell-based; conditions: Z. bailii; liquid medium pH 3.5; OD 96 hours after inoculation
Experimental: as §1, §5, §6

Candida albicans [6] = assay: as above; assay type: cell-based; conditions: C. Albicans; liquid medium pH 3.5; OD 96 hours after inoculation
Experimental: as §1, §5, §6

Saccharomyces cerevisiae = conditions: culture medium, WO 2009/031041; cited from earlier work
Kluyveromyces marxianus = conditions: culture medium, WO 2009/031041; cited from earlier work
[7] = EGCG 0.07 wt. %, average of two experiments

Molecule | Maximum OD [1, 7] | Maximum OD [2, 7] | Maximum OD (Candida albicans [3]; [7]) | MIC [4] | MIC [5] | MIC (Candida albicans [6]) | Maximum OD ([1]; LAE 0.001 wt. %) | Maximum OD ([2]; LAE 0.002 wt. %) | Maximum OD (Candida albicans [3]; LAE 0.002 wt. %) | MIC (Saccharomyces cerevisiae) [ppm] | MIC (Kluyveromyces marxianus) [ppm] | Maximum OD ([2]; ε-polylysine 0.0005 wt. %) | Maximum OD (Candida albicans [3]; ε-polylysine 0.0005 wt. %)
O=C(O[C@@H]1Cc2c(O)cc(O)cc2O[C@@H]1c1cc(O)c(O)c(O)c1)c1cc(O)c(O)c(O)c1 [EGCG, Epigallocatechin gallate] | 0.28* | 0.28* | 0.40* | 5000 ppm | 2000 ppm | 9000 ppm |  |  |  |  |  |  | 
CCCCCCCCCCCC(=O)N[C@@H](CCCN=C(N)N)C(=O)OCC [LAE, lauric arginate] |  |  |  | 30-80 ppm | >70* ppm | >70* ppm | 0.19 | 0.38 | 0.30 | 24 | 7 |  | 
ε-Polylysine |  |  |  | 30-80 ppm | >40* ppm | >40* ppm |  |  |  |  |  | 0.40 | 0.32
